Assay [1] deals with cAMP/CREB pathway (GAL4-CREB fusion). Put plainly: Luciferase reporter assay in RCLH-CREB stable reporter cells treated with extracellular stimuli. Format: cell-based, human. Conditions: in the presence of 100 uM forskolin, 5 hours.
For assay [2], the system named is MAPK pathway converging on Elk1 (GAL4-Elk1 fusion). Put plainly: Luciferase reporter assay in RCLH-Elk1 stable reporter cells treated with extracellular stimuli. Conditions: separate experiment.

With `CCCCCCCCCCCCCC(=O)O[C@@H]1[C@@H](C)[C@@]2(O)[C@@H](C=C(CO)C[C@]3(O)C(=O)C(C)=C[C@@H]23)[C@@H]2C(C)(C)[C@]12OC(C)=O` [PMA, phorbol 12-myristate 13-acetate], in assay [1], the “Stimulation of luciferase expression” value is given as “approximately 70 fold”. As to “TGF-α: growth factor found to activate MAPK pathways”, the “Activation of MAPK pathways” value in assay [2] is reported as “also activates MAPK pathways”.

The values are drawn from US20050106730A1, “Compositions and methods utilizing stable reporter cell lines for detection of pathway-specific signal transduction” (priority 1999, published 2005).
